Where a name gives a salt, the structure may show the parent alone.
Assays:
[1] = upon contact with either plasma or aqueous solutions; cited from earlier work
[2] = system: patients with relapsed, refractory multiple myeloma; assay: Exposure-response logistic regression analyses, phase 1 study of weekly single-agent ixazomib; assay type: in vivo, human; details: starting dose 3.0 mg weekly
Excerpt: The methods and results of these analyses are described below.
The metric of exposure (Ex) was AUC per day (derived from individual clearance values using population pharmacokinetics) for both exposure logistic regression analyses Ex/S and Ex/E. Ex/S analysis was done on seven adverse events (AEs): non-hematologic (non-H) (fatigue, rash, peripheral neuropathy, diarrhea) and hematologic (H) (anemia, thrombocytopenia, neutropenia). The non-hematologic adverse events data were categorized into grade≥2 vs. grade≤1 groups while hematologic adverse events data were grouped into grade≥3 vs. grade≤2. The data were categorized in this way as maintenance treatment should have a tolerable adverse events profile and contribute to acceptable quality of life. Different cut-offs were used for hematologic and non-hematologic adverse events because grade 3 hematologic adverse events may have less impact on quality of life and be more manageable than grade 2 non-hematologic adverse events such as diarrhea. For exposure efficacy (Ex/E), data were categorized as: ≥stable disease (SD) vs. progressive disease (PD). Clinical benefit rate including SD achieved in relapsed or refractory patients may be a meaningful predictor of expected response in a maintenance setting. The logistic regression analyses were done using SPLUS software version 8.1.

[3] = system: multiple myeloma patients who completed induction therapy; assay: Clinical study of oral single-agent ixazomib maintenance therapy; assay type: in vivo, human
Excerpt: These patients completed induction therapy and progressed to the maintenance phase.

[4] = biological target: β1 site of the 20S proteasome (Homo sapiens, UniProt P28072); details: at higher concentrations; cited from earlier work
[5] = biological target: β2 site of the 20S proteasome (Homo sapiens, UniProt Q99436); details: at higher concentrations; cited from earlier work
kinases = details: read-out: IC50 values against kinases; cited from earlier work
receptors = details: read-out: IC50 values against receptors; cited from earlier work
β5 proteasome = β5 proteasome (Homo sapiens, UniProt P28074); details: in contrast to bortezomib; cited from earlier work
tumor xenografts = details: in contrast to bortezomib; cited from earlier work
[6] = in contrast to bortezomib; cited from earlier work
[7] = system: patients with advanced solid tumors, lymphoma, RRMM, and relapsed or refractory AL amyloidosis; details: cited from earlier work
[8] = of 10 patients who improved during maintenance

## CC(C)C[C@H](NC(=O)CNC(=O)c1cc(Cl)ccc1Cl)B1OC(=O)C(CC(=O)O)(CC(=O)O)O1 [ixazomib citrate]
[1]
  hydrolysis to ixazomib: rapidly hydrolyzes

## CC(C)C[C@H](NC(=O)CNC(=O)c1cc(Cl)ccc1Cl)B(O)O [ixazomib]
[2]
  model-predicted clinical benefit rate (≥SD): ~33%
  model-predicted incidence of grade≥2 diarrhea: 19%
  model-predicted incidence of grade≥2 fatigue: 19%
  model-predicted incidence of grade≥2 rash: 16%
  model-predicted incidence of grade≥3 neutropenia: 10%
  model-predicted incidence of grade≥3 thrombocytopenia: 22%
[3]; after follow-up of 25.1-33.9 months
  survival of patients who received maintenance: alive
[3]; n=21, maintenance therapy
  best overall response: complete response (CR) or better, percent of patients: 52%
  best overall response: very good partial response (VGPR) or better, percent of patients: 71%
[3]; n=21, range 6.7-31.18
  median duration of response: 21.65 months
[3]; [8]
  improved response CR to sCR, patients: 2/10
  improved response VGPR to CR, patients: 5/10
  improved response VGPR to near-CR (nCR), patients: 2/10
  improved response VGPR to stringent complete response (sCR), patients: 1/10
[3]; range 0.92-5.78
  median time to first response (≥rapid response “PR”): 0.99 months
[3]; range 1.02-24.74
  median time to best response: 7.46 months
[4]
  inhibition of activity of the β1 site: also inhibits the activity
[5]
  inhibition of activity of the β2 site: also inhibits the activity
kinases
  IC50: > 10 µM
receptors
  IC50: > 10 µM
β5 proteasome
  dissociation rate from the proteasome: faster dissociation rate
Tumor xenografts
  antitumor activity in tumor xenografts: antitumor activity in a broader range of tumor xenografts
[6]
  tissue penetration: more prolonged tissue penetration
[7]; advanced solid tumors, lymphoma, RRMM, AL amyloidosis
  clinical activity: early signs of activity
[7]; clinical studies
  emerging safety profile / tolerability: generally well tolerated
  toxicity profile: favorable toxicity profile with low rates of peripheral neuropathy
